Results as given in patent US8445409B2, “Use of 5-benzyloxymethyl-1,2-isoxazoline derivatives as a herbicide” (Moghu Research Center Ltd., priority 2007, dated 2013).

Legend:
Experiment in all cases: Selective control of grassy weeds in turf (Example 3-1), visual rating
Format in all cases: in vivo
Bentgrass = settings: four weeks after spray, 0-100 scale (100=completely killed)
Source text: (§1) Commercially available sod mats of zoysiagrass and bentgrass, Kentucky bluegrass, and perennial ryegrass were purchased. After cutting each turf sod mat in a size of 10 cm×20 cm, it was transplanted to a rectangular plastic pot having a surface area of 300 cm^2 wherein mixed soils including blend of a bed soil (Boonong, Horticultural Nursery Soil No. 3) and sandy loam soil were filled (mixing ratio, 1:1). After transplanting, the grass was mowed (0.5˜1.0 cm in height) once a week, and kept for one month in a greenhouse maintained at 25˜30° C. (day) or 15˜25° C. (night). Then three strips of 1 cm width were removed by excision with a scissor. The open space was filled with a new soil, and seeds of large crabgrass, annual bluegrass, or goosegrass were sown. The pots were kept in a greenhouse. When the said weeds were grown up to the 3 leaf stage, another set was prepared in the same method. The first set represented post-emergence (POST) and the second set represented pre-emergence (PRE) stages of the weeds (large crabgrass, annual bluegrass, goosegrass). Then the test compound was applied at 0.25, 0.5. 1.0, 2.0, and 4.0 kg/ha. Spray was made by a track sprayer equipped with a Teejet 8002 nozzle. Spray volume was adjusted to 2,000 L/ha. The spray solution was prepared by dissolving the “test substance” in acetone and adding the same volume of 0.2% (v/v) Tween 20 aqueous solution. Four weeks after the spray of the test substance, phytotoxicity to the turfgrass and herbicidal activity to the said weeds were visually evaluated based on 0 to 100 scale (0: no phytotoxic effect, 100: completely killed). The test was conducted in a completely randomized design with 3 replicates.

Annual bluegrass = settings: four weeks after spray, 0-100 scale (100=completely killed); for Herbicidal activity, visual: Weeds ABG (POST): 3 leaf stage
Source text: as §1

Zoysiagrass = settings: four weeks after spray, 0-100 scale (100=completely killed)
Source text: as §1

Kentucky bluegrass = settings: four weeks after spray, 0-100 scale (100=completely killed)
Source text: as §1

Goosegrass = settings: four weeks after spray, 0-100 scale (100=completely killed); for Herbicidal activity, visual: Weeds GSG (POST): 3 leaf stage
Source text: as §1

Perennial ryegrass = settings: four weeks after spray, 0-100 scale (100=completely killed)
Source text: as §1

Large crabgrass = settings: four weeks after spray, 0-100 scale (100=completely killed); for Herbicidal activity, visual: Weeds LCG (POST): 3 leaf stage
Source text: as §1

Structure (SMILES): Cc1ccsc1C1=NOC(C)(COCc2c(F)cccc2F)C1 (centres unmarked) [test substance, 5-(2,6-difluorobenzyl)oxymethyl-5-methyl-3-(4-methylthiophen-5-yl)-1,2-isoxazoline]
- Phytotoxicity, visual: Turfgrass BTG (Bentgrass; 0.25 kg/ha): 0
- Phytotoxicity, visual: Turfgrass BTG (Bentgrass; 0.5 kg/ha): 0
- Phytotoxicity, visual: Turfgrass BTG (Bentgrass; 1 kg/ha): 0
- Phytotoxicity, visual: Turfgrass BTG (Bentgrass; 2 kg/ha): 0
- Phytotoxicity, visual: Turfgrass BTG (Bentgrass; 4 kg/ha): 10
- Herbicidal activity, visual: Weeds ABG (POST) (Annual bluegrass; 0.25 kg/ha): 60
- Herbicidal activity, visual: Weeds ABG (PRE) (Annual bluegrass; 0.25 kg/ha): 100
- Herbicidal activity, visual: Weeds ABG (POST) (Annual bluegrass; 0.5 kg/ha): 75
- Herbicidal activity, visual: Weeds ABG (PRE) (Annual bluegrass; 0.5 kg/ha): 100
- Herbicidal activity, visual: Weeds ABG (POST) (Annual bluegrass; 1 kg/ha): 83
- Herbicidal activity, visual: Weeds ABG (PRE) (Annual bluegrass; 1 kg/ha): 100
- Herbicidal activity, visual: Weeds ABG (POST) (Annual bluegrass; 2 kg/ha): 92
- Herbicidal activity, visual: Weeds ABG (PRE) (Annual bluegrass; 2 kg/ha): 100
- Herbicidal activity, visual: Weeds ABG (POST) (Annual bluegrass; 4 kg/ha): 95
- Herbicidal activity, visual: Weeds ABG (PRE) (Annual bluegrass; 4 kg/ha): 100
- Phytotoxicity, visual: Turfgrass ZSG (Zoysiagrass; 0.25 kg/ha): 0
- Phytotoxicity, visual: Turfgrass ZSG (Zoysiagrass; 0.5 kg/ha): 0
- Phytotoxicity, visual: Turfgrass ZSG (Zoysiagrass; 1 kg/ha): 0
- Phytotoxicity, visual: Turfgrass ZSG (Zoysiagrass; 2 kg/ha): 0
- Phytotoxicity, visual: Turfgrass ZSG (Zoysiagrass; 4 kg/ha): 12
- Phytotoxicity, visual: Turfgrass KBG (Kentucky bluegrass; 0.25 kg/ha): 0
- Phytotoxicity, visual: Turfgrass KBG (Kentucky bluegrass; 0.5 kg/ha): 0
- Phytotoxicity, visual: Turfgrass KBG (Kentucky bluegrass; 1 kg/ha): 0
- Phytotoxicity, visual: Turfgrass KBG (Kentucky bluegrass; 2 kg/ha): 0
- Phytotoxicity, visual: Turfgrass KBG (Kentucky bluegrass; 4 kg/ha): 21
- Herbicidal activity, visual: Weeds GSG (POST) (Goosegrass; 0.25 kg/ha): 85
- Herbicidal activity, visual: Weeds GSG (PRE) (Goosegrass; 0.25 kg/ha): 100
- Herbicidal activity, visual: Weeds GSG (POST) (Goosegrass; 0.5 kg/ha): 95
- Herbicidal activity, visual: Weeds GSG (PRE) (Goosegrass; 0.5 kg/ha): 100
- Herbicidal activity, visual: Weeds GSG (POST) (Goosegrass; 1 kg/ha): 100
- Herbicidal activity, visual: Weeds GSG (PRE) (Goosegrass; 1 kg/ha): 100
- Herbicidal activity, visual: Weeds GSG (POST) (Goosegrass; 2 kg/ha): 100
- Herbicidal activity, visual: Weeds GSG (PRE) (Goosegrass; 2 kg/ha): 100
- Herbicidal activity, visual: Weeds GSG (POST) (Goosegrass; 4 kg/ha): 100
- Herbicidal activity, visual: Weeds GSG (PRE) (Goosegrass; 4 kg/ha): 100
- Phytotoxicity, visual: Turfgrass PRG (Perennial ryegrass; 0.25 kg/ha): 0
- Phytotoxicity, visual: Turfgrass PRG (Perennial ryegrass; 0.5 kg/ha): 0
- Phytotoxicity, visual: Turfgrass PRG (Perennial ryegrass; 1 kg/ha): 0
- Phytotoxicity, visual: Turfgrass PRG (Perennial ryegrass; 2 kg/ha): 0
- Phytotoxicity, visual: Turfgrass PRG (Perennial ryegrass; 4 kg/ha): 0
- Herbicidal activity, visual: Weeds LCG (POST) (Large crabgrass; 0.25 kg/ha): 80
- Herbicidal activity, visual: Weeds LCG (PRE) (Large crabgrass; 0.25 kg/ha): 100
- Herbicidal activity, visual: Weeds LCG (POST) (Large crabgrass; 0.5 kg/ha): 90
- Herbicidal activity, visual: Weeds LCG (PRE) (Large crabgrass; 0.5 kg/ha): 100
- Herbicidal activity, visual: Weeds LCG (POST) (Large crabgrass; 1 kg/ha): 95
- Herbicidal activity, visual: Weeds LCG (PRE) (Large crabgrass; 1 kg/ha): 100
- Herbicidal activity, visual: Weeds LCG (POST) (Large crabgrass; 2 kg/ha): 100
- Herbicidal activity, visual: Weeds LCG (PRE) (Large crabgrass; 2 kg/ha): 100
- Herbicidal activity, visual: Weeds LCG (POST) (Large crabgrass; 4 kg/ha): 100
- Herbicidal activity, visual: Weeds LCG (PRE) (Large crabgrass; 4 kg/ha): 100
